Data published in paper PMC5161434 (EBioMedicine, 2016).

Key:
A2780 = test: CCK-8 cell viability, A2780 ovarian cancer cells; format: cell-based, human; conditions: for IC50: Homo sapiens, A2780, 48 h, read-out: IC50 (cell growth inhibition), A2780
OVCAR3 = test: CCK-8 cell viability, OVCAR3 ovarian cancer cells; format: cell-based, human; conditions: for IC50: Homo sapiens, OVCAR-3, 48 h, read-out: IC50 (cell growth inhibition), OVCAR-3
A2780 cells [1] = test: PI staining cell-cycle distribution, A2780; format: cell-based, human; conditions: 24 h
OVCAR3 cells [2] = test: PI staining cell-cycle distribution, OVCAR3; format: cell-based, human; conditions: 24 h
A2780 cells [3] = test: Western blotting of apoptosis, cell cycle and EMT proteins, A2780; format: cell-based, human; conditions: 24 h; for cleavage of caspase 3 and PARP: ARS4 1, 5, 10 μM, DHA or melphalan 10 μM
OVCAR3 cells [4] = test: Western blotting of apoptosis, cell cycle and EMT proteins, OVCAR3; format: cell-based, human; conditions: 24 h; for cleavage of caspase 3 and PARP: ARS4 1, 5, 10 μM, DHA or melphalan 10 μM
[5] = Host toxicity in tumor-bearing mice; format: in vivo, BALB/c nude mice; conditions: 25 mg/kg daily, end of experiment; for organ weights (liver, kidneys, spleen, lung): versus vehicle

Structure (SMILES) | growth of cells after 12 h of exposure (CCK8) (A2780; A2780, 12 h, data not shown) | IC50 (A2780) [µM] | IC50 (OVCAR3) [µM] | growth of cells after 12 h of exposure (CCK8) (OVCAR3; OVCAR3, 12 h, data not shown) | effect on cell-cycle progression (A2780 cells [1]) | effect on cell-cycle progression (OVCAR3 cells [2]) | cleavage of caspase 3 and PARP (A2780 cells [3]) | cleavage of caspase 3 and PARP (OVCAR3 cells [4]) | EMT phenotype (E-cadherin, Vimentin, Snail, Slug expression) (A2780 cells [3]) | EMT phenotype (E-cadherin, Vimentin, Snail, Slug expression) (OVCAR3 cells [4]) | histological findings (H&E; liver, kidneys, spleen, lung) [5] | organ weights (liver, kidneys, spleen, lung) [5]
C[C@H]1[C@@H](O)O[C@@H]2O[C@@]3(C)CC[C@H]4[C@H](C)CC[C@@H]1[C@@]24OO3 [Compound 1, Dihydroartemisinin] | no apparent inhibition of growth | 4.75 | 5.65 | no apparent inhibition of growth | modest arrest in the G0/G1 phase | modest arrest in the G0/G1 phase | less effect | less effect |  |  |  | 
N[C@@H](Cc1ccc(N(CCCl)CCCl)cc1)C(=O)O [Compound 3, melphalan] |  | 23.2 | 11.6 |  | arrested cells in the S phase | arrested cells in the S phase | less effect | less effect | no obvious effect | no obvious effect | substantial necrosis of liver and spleen parenchymal cells | Severe decreases in organ weight
N.N.O=C([O-])C1(C(=O)[O-])CCC1.[Pt+2] [Carboplatin] |  |  |  |  |  |  |  |  |  |  |  | loss
